Laboratory results as given in US20260227411A1, “CONJUGATED METABOLITES FOR CANCER DETECTION AND TREATMENT” (VANDERBILT UNIVERSITY, priority 2023, published 2026).

Experiments:
[1] = test system: human gastric organoid lines; test: A939572 treatment of human gastric organoid lines; type: cell-based; settings: 1 μM for human
[2] = test system: dysplastic organoids; test: Metabolic enzyme inhibitor treatment of mouse dysplastic organoids; type: cell-based
Description: (§1) Mouse gastric organoids were established from corpus of untreated or Gif-rtTA; TetO-Cre; KrasG12D (GCK) mouse stomachs as described previously. The GCK mouse gastric organoids were cultured in ECM Gel (E1270, Sigma-Aldrich) or Cultrex® Reduced Growth Factor Basement Membrane Extract, Type R1 (3433-005-R1, R&D systems) with Mouse IntestiCult medium (06005, StemCell Technology) supplemented with 1% of penicillin/streptomycin (2441832, Gibco) in 48-well plates. The medium was replaced every 3 days and organoids were split every 3 to 5 days. Human gastric organoids were previously established from patients who underwent curative gastrectomy as described. The human gastric organoids were cultured in Corning™ Matrigel™ Membrane Matrix (356231, Thermo Fisher Scientific) with Human IntestiCult medium (06010, StemCell Technology) supplemented with 1% of penicillin/streptomycin, 0.2% of MycoZap (VZA-2031, Lonza) in a 48-well plate.
(§2) For metabolic enzyme inhibitor treatment, the media was switched to metabolic enzyme inhibitor containing media at one day after splitting the mouse gastric organoids and cultured for 3 days. For metabolite treatment, mouse gastric organoids were treated 100 nM A939572 with metabolites (cis-11-eicosenoic acid or cis-7,10,13,16-docosatetraenoic acid) at one day after splitting the mouse gastric organoids and cultured for 3 days. […] Quantitative data analyses were performed using at least 3 wells of images at 4× magnification. For measurement of organoid growth, phase contrast images of organoids were captured over time and measured at the widest diameters using the ZEN 3.3 blue edition (Zeiss) measuring tool. […]
To determine the role of metabolic switch in dysplastic cells, expression levels of key metabolic enzymes, important for glycolysis or FA metabolism, were examined using gastric organoids established from each stage of GCK mice (FIG. 4A). […] The functional roles of metabolic pathways were assessed using key enzyme inhibitors in dysplastic organoids which highly expressed SCD1 (FIG. 4E). […]

[3] = test system: normal gastric organoids; test: A939572 treatment of normal gastric organoids; type: cell-based, mouse; settings: 100 nM A939572
Description: as §1, with “The human gastric organoids were cultured in Corning™ Matrigel™ Membrane Matrix (356231, Thermo Fisher Scientific) with Human IntestiCult medium (06010, StemCell Technology) supplemented with 1% of penicillin/streptomycin, 0.2% of MycoZap (VZA-2031, Lonza) in a 48-well plate.” left out
as §2, with “media” for “media at one day after splitting the mouse gastric organoids and cultured for 3 days. For metabolite treatment, mouse gastric organoids were treated 100 nM A939572 with metabolites (cis-11-eicosenoic acid or cis-7,10,13,16-docosatetraenoic acid)”

[4] = test system: Gif-rtTA; TetO-Cre; Kras^G12D (GCK) mice; test: In vivo A939572 treatment of GCK mice; settings: 20 mg/kg intraperitoneal daily for 2 weeks
Description: All experiments involving mice used in this study followed protocols approved by the Institutional Animal Care and Use Committees of Vanderbilt University Medical Center. Littermates or age-matched mice were randomly allocated to experimental or control groups. Animal weights were recorded at initiation of experiment and at the time of euthanasia. To generate the Gif-rtTA; TetO-Cre; Kras^G12D (GCK) mice, the Gif-rtTA mice were crossed with TetO-Cre mice and Lox-Stop-Lox (LSL)-Kras^G12D mice (no. 006224 and 008179, Jackson Laboratories). For the induction of Cre-mediated recombination, 6-week-old mice were administered with doxycycline water at a concentration of 1 mg/mL for 2 weeks. Mice were sacrificed at 2 to 14 weeks after doxycycline treatment for histological examination. For in vivo A939572 treatment, A939572 (HY-50709; MedChemExpress) was dissolved in dimethyl sulfoxide (DMSO) as a 100 mg/mL stock and stored at −80° C. in aliquots. The A939572 was administered daily for two weeks by intraperitoneal injection (20 mg/kg diluted in corn oil) to mice at 6 weeks after doxycycline treatment. Mice were sacrificed within a day after the last A939572 treatment.
Mouse tissues were isolated and fixed overnight in 4% paraformaldehyde, embedded in paraffin. Paraffin-embedded sections were sectioned at a thickness of five-micrometer and stained with hematoxylin and eosin (H&E). For immunostaining, unstained paraffin tissue sections were deparaffinized in HistoClear (HS-200, National Diagnostics) and rehydrated through a serial dilution of ethanol. Antigen retrieval was performed in target retrieval solution (S1699 or S2367, Agilent) using a pressure cooker for 15 minutes. Sections were rinsed in dH2O and incubated with Serum-free Protein Block Solution (X0909, Agilent) for 1.5 hours at room temperature (RT). Sections were additionally incubated with Mouse on Mouse Blocking Reagent (MKB-2213-1, Vector Laboratories) for 30 min at RT to block nonspecific staining with primary antibodies generated in mice on mouse tissues. Primary antibodies were diluted in Antibody Diluent (S3022, Agilent) and applied to sections overnight at 4° C.
For immunofluorescence, paraffin sections were washed with 1×PBS three times and incubated with Alexa-conjugated secondary antibodies (Life Technologies, 1:500) for 1 hour at RT. Sections were washed with 1×PBS three times and incubated with Hoechst 33342 (62249, Thermo Fisher Scientific, 1:5000) for 5 min at RT. The sections were then washed with 1×PBS three times and mounted with Prolong gold anti-fade reagent (P36934, Thermo Fisher Scientific). Images were captured on a Zeiss Axio Imager M2 microscope with Axiovision digital imaging system at 20× magnification. For immunohistochemistry, paraffin sections were washed with 1×PBS three times and incubated with HRP-conjugated secondary antibodies (MP-7402, Vector Laboratories) for 15 min at RT. Sections were washed with 1×PBS three times and incubated with Envision+ Detection System Peroxidase/DAB substrate (Dako). Sections were then washed with dH2O and counterstained Mayer's Hematoxylin (MHS32, Sigma-Aldrich). The sections were dehydrated and mounted with aqueous mounting medium. The sections were scanned on an SCN400 Slide Scanner (Leica Biosystems) at 20× magnification. TUNEL staining was performed using the Click-iT Plus TUNEL assay kit, according to the manufacturer's protocol (C10618, Life Technologies).
H&E-stained sections were scanned in SCN400 Slide Scanner and analyzed by Aperio ImageScope software (Leica Biosystems). Gland types were classified using the same diagnostic criteria used for human tissue sections. Briefly, the gland representing foveolar hyperplasia without goblet cells and mucous metaplasia at the base was diagnosed as a pyloric metaplastic gland, while intestinal metaplasia was determined by presence of basophilic mucin droplet-containing cells in the foveolar region.

[5] = test system: dysplastic organoids; test: Metabolite rescue of A939572-treated dysplastic organoids; type: cell-based, mouse
Description: For metabolic enzyme inhibitor treatment, the media was switched to metabolic enzyme inhibitor containing media at one day after splitting the mouse gastric organoids and cultured for 3 days. For metabolite treatment, mouse gastric organoids were treated 100 nM A939572 with metabolites (cis-11-eicosenoic acid or cis-7,10,13,16-docosatetraenoic acid) at one day after splitting the mouse gastric organoids and cultured for 3 days. The EVOS M7000 inverted microscope (Thermo Fisher Scientific) or JuLI™ stage, a Real-Time Cell History Recorder (NanoEntek) were used to capture phase contrast images of the organoids or monitor the growth and morphological changes of the organoids in real-time. Quantitative data analyses were performed using at least 3 wells of images at 4× magnification. For measurement of organoid growth, phase contrast images of organoids were captured over time and measured at the widest diameters using the ZEN 3.3 blue edition (Zeiss) measuring tool. For Calcein AM/Ethidium-1(EthD-1) staining, mouse gastric organoids were cultured for 1 day after splitting and transferred to microfluidic-based flowchips (Protein Fluidics) that can enable 3D cell-based assay. The media containing 100 nM A939572 with metabolites (cis-11-eicosenoic acid or cis-7,10,13,16-docosatetraenoic acid) was added to the top of the organoids and cultured for 3 days. Then, the organoids were stained with […] (L3224, Thermo Fisher Scientific) for 30 min at 37° C. Confocal imaging was performed on a Zeiss LSM 880 using a 20× magnification. To prepare Formalin-Fixed, Paraffin-Embedded (FFPE) organoid sections, whole mouse or human gastric organoids in Matrigel™ were fixed in 4% PFA for 30 min at RT and washed with 1×PBS twice. The organoids were embedded in Epredia™ HistoGel™ (HG-4000-012, Thermo Fisher Scientific) and processed according to a standard histological protocol for paraffin embedding.
To address how and why dysplastic cells utilize the SCD-dependent FA desaturation, experiments examined the functions of two different unsaturated long-chain FAs, MUFA (FFA 20:1) and PUFA (FFA 22:4), which were abundant in dysplasia. Two metabolites, Eicosenoic acid (EA; 20:1n9, MUFA) and Docosatetraenoic acid (DA; 22:4n6, PUFA) (FIG. 7A) were selected based on the enhanced fragment ions detected from imaging mass spectrometry (FIG. 3E). Dysplastic organoids were co-treated with A939572, in combination with either EA or DA for 3 days. […] To determine the subcellular localization of EA in dysplastic cells, EA was conjugated with NBD, a green-fluorescent compound (NBD-EA) (FIG. 7B and FIG. 8A-B). […] Since the EA is imported into mitochondria, experiments further examined whether the EA undergoes FA oxidation which occurs in the mitochondrial aerobic metabolism and produces energy substrate for the TCA cycle.

[6] = test system: NCI-N87; test: EA-DM1 treatment of gastric cancer cell line NCI-N87; type: cell-based; settings: 100 nM
Description: (§3) FIG. 9A-B show cells treated with EA-DM1 (cis-11-eicosenoic acid conjugated to mertansine (DM1)). […] DMSO was used as a vehicle control. […] The NIH-3T3 cell line was used as a negative control, and mouse normal cells and DMSO were used as a vehicle control.
(§4) To evaluate whether EA-DM1 (cis-11-eicosenoic acid conjugated to mertansine (DM1)) could be internalized and release free DM1 toxin into the cytosol, two different gastric cancer cell lines, AGS and NCI-N87, were treated with EA-DM1 for 2 days (FIG. 9A-B). Gastric cancer cells died within 2 days after the EA-DM1 treatment at 100 nM concentration (FIG. 9A).

[7] = test system: AGS; test: EA-DM1 treatment of gastric cancer cell line AGS; type: cell-based
Description: as §3, §4

[8] = test system: NIH-3T3 cells; test: EA-DM1 treatment of NIH-3T3 cells (negative control); type: cell-based, mouse; settings: 5 nM, 2 days
Description: as §3, §4

[9] = test system: dysplastic cells; test: Subcellular localization of NBD-EA in 2-dimensional monolayer culture; type: cell-based, mouse
Description: Mouse gastric organoids were dissociated into single cells and dissociated cells (5,000 cells/well) were seeded on the collagen-coated 8-well chamber slide (ibidi) in Mouse IntestiCult medium (06005, StemCell Technology) for two days until the cells reach at 50% confluency. The cells were incubated with NBD (Compound A) or NBD-conjugated Eicosenoic acid over time and then stained with 100 nM MitoTracker™ Red CMXRos (M7512, Thermo Fisher Scientific) for 20 min at 37° C. The cells were washed with pre-warmed 1×PBS three times and counterstained with Hoechst for 5 min at RT. Confocal imaging was performed on a Zeiss LSM 880 using 63× magnification.

[10] = co-treated with 100 nM A939572 for 3 days

SMILES: CNC(=O)c1cccc(NC(=O)N2CCC(Oc3ccccc3Cl)CC2)c1 [A939572, 4-(2-chlorophenoxy)-N-(3-(methylcarbamoyl)phenyl)piperidine-1-carboxamide]
- time within which organoids died after treatment ([1]; organoid lines with dysplastic histology expressing both SCD and Trop2): ≤ 6 days
- response to treatment ([1]; organoids with low level of SCD, Trop2 negative (metaplastic)): did not respond to the treatment
- time within which dysplastic organoid growth and survival were impeded ([2]; 100 nM A939572): ≤ 1 days
- cell proliferation (Ki-67) in dysplastic organoids ([2]; 100 nM A939572, IF staining): a decrease in cell proliferation
- cleaved caspase-3 positive apoptotic cells in dysplastic organoids ([2]; 100 nM A939572, IF staining): accumulation of cleaved caspase-3 positive apoptotic cells in the central lumen of dysplastic organoids
- response of normal gastric organoids [3]: did not show any significant changes
- F4/80+CD68+ macrophages [4]: slightly increased only at the base of glands
- F4/80+CD68- macrophage infiltration [4]: significantly increased in the transitioning and surface areas
- SPEM cells after treatment [4]: still present at the gland base and not co-positive for cleaved caspase-3 or TUNEL signal
- dead cells within the transitioning cell zone (cleaved caspase-3, TUNEL) [4]: significant increase in dead cells
- effects in other organs ([4]; at 6 weeks after doxycycline): without any effects in other organs
- gastric mucosa histology (H&E) ([4]; at 6 weeks after doxycycline): flattened mucosa and loss of histological characteristics of dysplastic cells in the transitioning and surface areas of glands

SMILES: CCCCCC=CCC=CCC=CC/C=C\CCCCCC(=O)O [DA, cis-7,10,13,16-docosatetraenoic acid]
- rescue of dysplastic organoids from SCD inhibition (organoid size) [5, 10]: did not show any differences compared to the organoids treated only with A939572

SMILES: CCCCCCCC/C=C\CCCCCCCCCC(=O)O [EA, cis-11-eicosenoic acid]
- organoid structure [5, 10]: not disrupted and showed clear central lumens
- rescue of dysplastic organoids from SCD inhibition (organoid size) [5, 10]: recovered from SCD inhibition and displayed a significant increase in size

SMILES: CCCCCCCC/C=C\CCCCCCCCCC(=O)N1CCN(C(=O)CSCCC(=O)N(C)[C@H](C)C(=O)O[C@@H]2CC(=O)N(C)c3cc(cc(OC)c3Cl)C/C(C)=C/C=C/[C@H](OC)[C@]3(O)C[C@@H](OC(=O)N3)[C@H](C)[C@H]3O[C@@]32C)CC1 [EA-DM1, (1^4S,1^6S,3^2S,3^3R,2R,4S,10E,12E,14R)-8^6-chloro-1^4-hydroxy-8^5,14-dimethoxy-3^3,2,7,10-tetramethyl-1^2,6-dioxo-7-aza-1(6,4)-oxazinana-3(2,3)-oxirana-8(1,3)-benzenacyclotetradecaphane-10,12-dien-4-yl N-(3-((2-(4-((Z)-icos-11-enoyl)piperazin-1-yl)-2-oxoethyl)thio)propanoyl)-N-methyl-L-alaninate]
- time within which gastric cancer cells died after treatment [6]: ≤ 2 days
- targeting of gastric cancer cells ([7]; 5 nM, 2 days): effectively targeted gastric cancer cells
- time within which gastric cancer cells died after treatment ([7]; 100 nM): ≤ 2 days
- changes in normal mouse fibroblast cells [8]: no noticeable changes

SMILES: CCCCCCCC/C=C\CCCCCCCCCC(=O)Nc1ccc([N+](=O)[O-])c2nonc12 [NBD-EA, NBD-cis-11-Eicosenoic acid (C20:1, n-9)]
- NBD fluorescent signal in dysplastic cells ([9]; 6 h after treatment): not detectable
- NBD fluorescent signal in dysplastic cells ([9]; 24 h): strongly accumulated in mitochondria
- NBD fluorescent signal in dysplastic cells ([9]; 48 h): weakly maintained

SMILES: C1CCC(C(CC2CCCCN2)C2CCCCC2)CC1 (stereo not drawn) [perhexiline]
- organoid growth after co-treatment ([5]; A939572, EA and perhexiline 10 μM, 3 days): did not display any significant increase in organoid growth
- effect of FA oxidation inhibition on rescue by EA ([5]; perhexiline 10 μM with A939572 and EA, 3 days): abolished rescue effects of EA in dysplastic organoids
